Data from patent US8829007B2 (priority 2009, dated 2014).

What follows are compounds tested on influenza A virus (A/PR/8/34) (assay: microbe, parasite or virus in culture). Settings: Influenza A virus, PR/8, MDCK, MDCK cells infected with A/PR/8/34, cell protection (CPE); read-out: IC50 (mean all).
Format: cell-based

Q: With `OC1CCCC[C@@H]1CNc1nc(-c2c[nH]c3ncc(Cl)cc23)ncc1F` (stereo partly drawn) [Compound 12, (2R)-2-((2-(5-chloro-1H-pyrrolo[2,3-b]pyridin-3-yl)-5-fluoropyrimidin-4-ylamino)methyl)cyclohexanol] as the compound, how does the IC50 read?
A: The IC50 was greater than 20 µM.

Q: How did the IC50 turn out when `OC1CCCCC1Nc1nc(-c2c[nH]c3ncc(Cl)cc23)ncc1F` (stereo not shown) [Compound 13, 2-(2-(5-chloro-1H-pyrrolo[2,3-b]pyridin-3-yl)-5-fluoropyrimidin-4-ylamino)cyclohexanol] was run?
A: Its IC50 is less than 5 µM.

Q: `CCOC(=O)CCCC(=O)N1CCC[C@@H](CNc2nc(-c3c[nH]c4ncc(Cl)cc34)ncc2F)C1` [Compound 19, (S)-ethyl 5-(3-((2-(5-chloro-1H-pyrrolo[2,3-b]pyridin-3-yl)-5-fluoropyrimidin-4-ylamino)methyl)piperidin-1-yl)-5-oxopentanoate] was tested. Which IC50 did it give?
A: Its IC50 is greater than 20 µM.

Q: `CC(C)(C)NC(=O)N1CCC[C@@H](CNc2nc(-c3c[nH]c4ncc(Cl)cc34)ncc2F)C1` [Compound 20, (S)—N-tert-butyl-3-((2-(5-chloro-1H-pyrrolo[2,3-b]pyridin-3-3-yl)-5-fluoropyrimidin-4-ylamino)methyl)piperidine-1-carboxamide] was tested. Which IC50 did it give?
A: The IC50 was 5 to 20 µM.

Q: With `COCCOC(=O)N1CCC[C@@H](CNc2nc(-c3c[nH]c4ncc(Cl)cc34)ncc2F)C1` [Compound 24, (S)-2-methoxyethyl 3-((2-(5-chloro-1H-pyrrolo[2,3-b]pyridin-3-yl)-5-fluoropyrimidin-4-ylamino)methyl)piperidine-1-carboxylate] as the compound, how does the IC50 read?
A: Its IC50 is greater than 20 µM.

Q: For `CNC(=O)N1CCC[C@@H](CNc2nc(-c3c[nH]c4ncc(Cl)cc34)ncc2F)C1` [Compound 29, (S)-3-((2-(5-chloro-1H-pyrrolo[2,3-b]pyridin-3-yl)-5-fluoropyrimidin-4-ylamino)methyl)-N-methylpiperidine-1-carboxamide], which IC50 is on record?
A: The IC50 was 5 to 20 µM.

Q: Which IC50 does the source give for `CC(C)C(=O)N1CCC[C@@H](CNc2nc(-c3c[nH]c4ncc(Cl)cc34)ncc2F)C1` [Compound 34, (S)-1-(3-((2-(5-chloro-1H-pyrrolo[2,3-b]pyridin-3-yl)-5-fluoropyrimidin-4-ylamino)methyl)piperidin-1-yl)-2-methylpropan-1-one] here?
A: The IC50 was less than 5 µM.

Q: `CC(C)OC(=O)N1CCC[C@@H](CNc2nc(-c3c[nH]c4ncc(Cl)cc34)ncc2F)C1` [Compound 35, (S)-isopropyl 3-((2-(5-chloro-1H-pyrrolo[2,3-b]pyridin-3-yl)-5-fluoropyrimidin-4-ylamino)methyl)piperidine-1-carboxylate] was tested. Which IC50 did it give?
A: The IC50 was greater than 20 µM.

Q: Which IC50 does the source give for `O=C(Nc1cccnc1)N1CCC[C@@H](CNc2nc(-c3c[nH]c4ncc(Cl)cc34)ncc2F)C1` [Compound 40, (S)-3-((2-(5-chloro-1H-pyrrolo[2,3-b]pyridin-3-yl)-5-fluoropyrimidin-4-ylamino)methyl)-N-(pyridin-3-yl)piperidine-1-carboxamide] here?
A: Its IC50 is greater than 20 µM.

Same assay, conditions: Influenza A virus, PR/8, MDCK, mean all; A/PR/8/34 infected MDCK cells, CPE assay; read-out: IC50

Q: With `CCC(=O)N[C@@H]1CCCC[C@@H]1Nc1nc(-c2c[nH]c3ncc(Cl)cc23)ncc1F` (relative stereo) [Compound 333, N-[cis-2-[[2-(5-chloro-1H-pyrrolo[2,3-b]pyridin-3-yl)-5-fluoro-pyrimidin-4-yl]amino]cyclohexyl]propanamide] as the compound, how does the IC50 read?
A: The IC50 was 5 to 20 µM.

Q: For `CCCC(=O)N[C@@H]1CCCC[C@@H]1Nc1nc(-c2c[nH]c3ncc(Cl)cc23)ncc1F` (relative stereo) [Compound 334, N-[cis-2-[[2-(5-chloro-1H-pyrrolo[2,3-b]pyridin-3-yl)-5-fluoro-pyrimidin-4-yl]amino]cyclohexyl]butanamide], which IC50 is on record?
A: The IC50 was 5 to 20 µM.

Q: With `O=C(N[C@@H]1CCCC[C@@H]1Nc1nc(-c2c[nH]c3ncc(Cl)cc23)ncc1F)C1CCCC1` (relative stereo) [Compound 335, N-[cis-2-[[2-(5-chloro-1H-pyrrolo[2,3-b]pyridin-3-yl)-5-fluoro-pyrimidin-4-yl]amino]cyclohexyl]cyclopentanecarboxamide] as the compound, how does the IC50 read?
A: The IC50 was greater than 20 µM.

Q: With `O=C(N[C@@H]1CCCC[C@@H]1Nc1nc(-c2c[nH]c3ncc(Cl)cc23)ncc1F)c1ccccc1` (relative stereo) [Compound 336, N-[cis-2-[[2-(5-chloro-1H-pyrrolo[2,3-b]pyridin-3-yl)-5-fluoro-pyrimidin-4-yl]amino]cyclohexyl]benzamide] as the compound, how does the IC50 read?
A: The IC50 was greater than 20 µM.

Q: `CCCS(=O)(=O)N[C@@H]1CCCC[C@@H]1Nc1nc(-c2c[nH]c3ncc(Cl)cc23)ncc1F` (relative stereo) [Compound 338, N-[cis-2-[[2-(5-chloro-1H-pyrrolo[2,3-b]pyridin-3-yl)-5-fluoro-pyrimidin-4-yl]amino]cyclohexyl]propane-1-sulfonamide] was tested. Which IC50 did it give?
A: Its IC50 is greater than 20 µM.

Q: How did the IC50 turn out when `CCCNC(=O)N[C@@H]1CCCC[C@@H]1Nc1nc(-c2c[nH]c3ncc(Cl)cc23)ncc1F` (relative stereo) [Compound 339, 1-[cis-2-[[2-(5-chloro-1H-pyrrolo[2,3-b]pyridin-3-yl)-5-fluoro-pyrimidin-4-yl]amino]cyclohexyl]-3-propyl-urea] was run?
A: Its IC50 is 5 to 20 µM.

Q: With `CCC(=O)N[C@@H]1CCCC[C@@H]1Nc1nc(-c2c[nH]c3ncccc23)ncc1F` (relative stereo) [Compound 341, N-[cis-2-[[5-fluoro-2-(1H-pyrrolo[2,3-b]pyridin-3-yl)pyrimidin-4-yl]amino]-cyclohexyl]propanamide] as the compound, how does the IC50 read?
A: The IC50 was greater than 20 µM.

Q: With `CCCC(=O)N[C@@H]1CCCC[C@@H]1Nc1nc(-c2c[nH]c3ncccc23)ncc1F` (relative stereo) [Compound 342, N-[cis-2-[[5-fluoro-2-(1H-pyrrolo[2,3-b]pyridin-3-yl)pyrimidin-4-yl]amino]cyclohexyl]butanamide] as the compound, how does the IC50 read?
A: The IC50 was greater than 20 µM.

Q: `O=C(N[C@@H]1CCCC[C@@H]1Nc1nc(-c2c[nH]c3ncccc23)ncc1F)C1CCCC1` (relative stereo) [Compound 343, N-[cis-2-[[5-fluoro-2-(1H-pyrrolo[2,3-b]pyridin-3-yl)pyrimidin-4-yl]amino]cyclohexyl]cyclopentanecarboxamide] was tested. Which IC50 did it give?
A: The IC50 was greater than 20 µM.

Q: Which IC50 does the source give for `O=C(N[C@@H]1CCCC[C@@H]1Nc1nc(-c2c[nH]c3ncccc23)ncc1F)c1ccccc1` (relative stereo) [Compound 344, N-[cis-2-[[5-fluoro-2-(1H-pyrrolo[2,3-b]pyridin-3-yl)pyrimidin-4-yl]amino]cyclohexyl]benzamide] here?
A: Its IC50 is greater than 20 µM.

Q: For `CCCS(=O)(=O)N[C@@H]1CCCC[C@@H]1Nc1nc(-c2c[nH]c3ncccc23)ncc1F` (relative stereo) [Compound 346, N-[cis-2-[[5-fluoro-2-(1H-pyrrolo[2,3-b]pyridin-3-yl)pyrimidin-4-yl]amino]cyclohexyl]propane-1-sulfonamide], which IC50 is on record?
A: Its IC50 is greater than 20 µM.

Q: With `CCCNC(=O)N[C@@H]1CCCC[C@@H]1Nc1nc(-c2c[nH]c3ncccc23)ncc1F` (relative stereo) [Compound 347, 1-[cis-2-[[5-fluoro-2-(1H-pyrrolo[2,3-b]pyridin-3-yl)pyrimidin-4-yl]amino]cyclohexyl]-3-propyl-urea] as the compound, how does the IC50 read?
A: The IC50 was greater than 20 µM.

Q: For `CCC(=O)N[C@@H]1CCCC[C@H]1Nc1nc(-c2c[nH]c3ncc(Cl)cc23)ncc1F` (relative stereo) [Compound 349, N-[trans-2-[[2-(5-chloro-1H-pyrrolo[2,3-b]pyridin-3-yl)-5-fluoro-pyrimidin-4-yl]amino]cyclohexyl]propanamide], which IC50 is on record?
A: Its IC50 is greater than 20 µM.

Q: How did the IC50 turn out when `CCCC(=O)N[C@@H]1CCCC[C@H]1Nc1nc(-c2c[nH]c3ncc(Cl)cc23)ncc1F` (relative stereo) [Compound 363, N-[trans-2-[[2-(5-chloro-1H-pyrrolo[2,3-b]pyridin-3-yl)-5-fluoro-pyrimidin-4-yl]amino]cyclohexyl]butanamide] was run?
A: Its IC50 is greater than 20 µM.

Q: How did the IC50 turn out when `O=C(N[C@@H]1CCCC[C@H]1Nc1nc(-c2c[nH]c3ncc(Cl)cc23)ncc1F)c1ccccc1` (relative stereo) [Compound 365, N-[trans-2-[[2-(5-chloro-1H-pyrrolo[2,3-b]pyridin-3-yl)-5-fluoro-pyrimidin-4-yl]amino]cyclohexyl]benzamide] was run?
A: Its IC50 is greater than 20 µM.

Q: How did the IC50 turn out when `CCCS(=O)(=O)N[C@@H]1CCCC[C@H]1Nc1nc(-c2c[nH]c3ncc(Cl)cc23)ncc1F` (relative stereo) [Compound 367, N-[trans-2-[[2-(5-chloro-1H-pyrrolo[2,3-b]pyridin-3-yl)-5-fluoro-pyrimidin-4-yl]amino]cyclohexyl]propane-1-sulfonamide] was run?
A: Its IC50 is 5 to 20 µM.

Q: `CCCNC(=O)N[C@@H]1CCCC[C@H]1Nc1nc(-c2c[nH]c3ncc(Cl)cc23)ncc1F` (relative stereo) [Compound 368, 1-[trans-2-[[2-(5-chloro-1H-pyrrolo[2,3-b]pyridin-3-yl)-5-fluoro-pyrimidin-4-yl]amino]cyclohexyl]-3-propyl-urea] was tested. Which IC50 did it give?
A: Its IC50 is greater than 20 µM.

Q: `CNC(=O)N[C@@H]1CCCC[C@@H]1Nc1nc(-c2c[nH]c3ncc(Cl)cc23)ncc1F` (relative stereo) [Compound 430, 1-[cis-2-[[2-(5-chloro-1H-pyrrolo[2,3-b]pyridin-3-yl)-5-fluoro-pyrimidin-4-yl]amino]cyclohexyl]-3-methyl-urea] was tested. Which IC50 did it give?
A: Its IC50 is less than 5 µM.

Q: With `CN(C)C(=O)N[C@@H]1CCCC[C@@H]1Nc1nc(-c2c[nH]c3ncc(Cl)cc23)ncc1F` (relative stereo) [Compound 431, 3-[cis-2-[[2-(5-chloro-1H-pyrrolo[2,3-b]pyridin-3-yl)-5-fluoro-pyrimidin-4-yl]amino]cyclohexyl]-1,1-dimethyl-urea] as the compound, how does the IC50 read?
A: Its IC50 is less than 5 µM.

Q: Which IC50 does the source give for `COC(=O)N[C@@H]1CCCC[C@@H]1Nc1nc(-c2c[nH]c3ncc(Cl)cc23)ncc1F` (relative stereo) [Compound 432, Methyl N-[cis-2-[[2-(5-chloro-1H-pyrrolo[2,3-b]pyridin-3-yl)-5-fluoro-pyrimidin-4-yl]amino]cyclohexyl]carbamate] here?
A: The IC50 was greater than 20 µM.

Same assay, conditions: MDCK cells infected with A/PR/8/34, cell protection (CPE); read-out: IC50 (mean all)

Q: `NC1CCCCC1Nc1nc(-c2c[nH]c3ncccc23)ncc1F` (stereo not shown) [Compound 4, N1-(5-fluoro-2-(1H-pyrrolo[2,3-b]pyridin-3-yl)pyrimidin-4-yl)cyclohexane-1,2-diamine] was tested. Which IC50 did it give?
A: Its IC50 is greater than 20 µM.

Same assay, conditions: read-out: IC50

Q: Which IC50 does the source give for “1-[trans-2-[[2-(5-chloro-1H-pyrrolo[2,3-b]pyridin-3-yl)-5-fluoro-pyrimidin-4-yl]amino]cyclohexyl]-3-propyl-urea [Compound 350]” here?
A: The IC50 was 5 to 20 µM.
